# In publication PMC9611727, “Optimization of a Novel Mandelamide-Derived Pyrrolopyrimidine Series of PERK Inhibitors” (Pharmaceutics, 2022):
# Where two headings read alike, the source gives them in different places.
# Columns and labels:
# Kasumi-1 (FLT3wt) = experiment: Cell viability assay, Kasumi-1; type: cell-based; conditions: Homo sapiens
# MOLM-13 (FLT3-ITD) = experiment: Cell viability assay, MOLM-13; type: cell-based; conditions: Homo sapiens
# PERK = target: T1, PERK (Homo sapiens, UniProt Q9NZJ5); experiment: PERK biochemical LanthaScreen TR-FRET assay (GFP-eIF2a phosphorylation)
# T1 sequence (Q9NZJ5 30-1116): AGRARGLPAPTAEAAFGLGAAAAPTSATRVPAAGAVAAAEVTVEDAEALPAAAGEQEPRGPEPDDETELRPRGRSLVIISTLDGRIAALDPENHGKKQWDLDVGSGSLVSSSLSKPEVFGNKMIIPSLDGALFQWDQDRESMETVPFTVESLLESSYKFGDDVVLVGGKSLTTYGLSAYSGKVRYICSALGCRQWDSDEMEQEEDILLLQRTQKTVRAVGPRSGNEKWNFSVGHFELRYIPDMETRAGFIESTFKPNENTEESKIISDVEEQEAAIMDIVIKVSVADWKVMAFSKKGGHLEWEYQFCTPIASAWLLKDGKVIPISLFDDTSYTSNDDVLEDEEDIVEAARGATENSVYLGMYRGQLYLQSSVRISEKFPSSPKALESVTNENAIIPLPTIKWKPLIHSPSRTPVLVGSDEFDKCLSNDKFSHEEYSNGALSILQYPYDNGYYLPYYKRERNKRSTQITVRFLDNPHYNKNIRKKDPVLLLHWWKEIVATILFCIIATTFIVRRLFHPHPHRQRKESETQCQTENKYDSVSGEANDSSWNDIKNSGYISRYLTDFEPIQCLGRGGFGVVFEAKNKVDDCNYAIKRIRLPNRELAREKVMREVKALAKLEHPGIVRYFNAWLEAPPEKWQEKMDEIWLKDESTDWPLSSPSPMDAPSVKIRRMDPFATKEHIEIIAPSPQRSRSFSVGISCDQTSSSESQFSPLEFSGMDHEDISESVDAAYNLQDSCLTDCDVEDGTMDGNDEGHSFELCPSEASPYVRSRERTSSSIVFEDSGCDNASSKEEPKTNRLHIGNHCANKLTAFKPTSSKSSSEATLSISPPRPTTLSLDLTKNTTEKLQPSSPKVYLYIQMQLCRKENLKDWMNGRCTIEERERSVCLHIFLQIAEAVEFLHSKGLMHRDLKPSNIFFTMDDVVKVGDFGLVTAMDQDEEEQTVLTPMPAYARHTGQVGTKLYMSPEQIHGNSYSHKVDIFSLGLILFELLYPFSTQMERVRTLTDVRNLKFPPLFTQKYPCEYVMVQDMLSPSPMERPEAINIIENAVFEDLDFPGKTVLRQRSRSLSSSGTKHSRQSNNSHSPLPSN
# Method: Methods used to evaluate biochemical PERK activity are described and published elsewhere. In brief, biochemical PERK activity is evaluated using a LanthaScreenTM ([…]) TR-FRET assay to detect phosphorylation of a GFP-tagged eIF2a substrate (ThermoFisher). Excitation at […] of a terbium chelate donor fluorophore in an eIF2a antibody results in energy transfer to GFP acceptor fluorophore upon eIF2a phosphorylation by PERK. Reaction buffer was composed of 50 mM HEPES (pH 7.4), 10 mM MgCl2, 1 mM EGTA and 0.01% (v/v) BrijTM-35. Reactions were initiated by the addition of substrate and ATP, followed by incubation for 1 h at RT prior to addition of EDTA and the anti-peIF2a antibody. FRET was measured by an EnVision Plate Reader (PerkinElmer). Data were plotted as percent inhibition along a 10-point 3-fold dilution series of inhibitors. IC50 values were calculated using 4-parameter logistical fitting in XLFit.
# (§1) The PERK activity of analog I was evaluated using cell-free biochemical assays. In these assays, PERK phosphorylation of eIF2a was assessed using a FRET-based labelled protein assay. Compounds were then evaluated for cellular activity by quantifying inhibition of eIF2a phosphorylation in HEK293 cells treated with the ER inducer tunicamycin [7].
# p-eIF2α = experiment: Cellular PERK inhibition: p-eIF2a TR-FRET in tunicamycin-treated HEK293-EGFP-eIF2a cells; type: cell-based
# Method: Methods used to evaluate in vitro cellular PERK inhibition are described and published elsewhere. In brief, stableHEK293 cells were created using lentiviral particles harboring a GFP-eIF2a expression vector. Transfectants were selected by puromycin and enriched using fluorescent cell sorting based on GFP expression. HEK293-EGFP-eIF2a cells were plated at 5000 cells/well in 384-well assay plates and incubated overnight. The following day, pyrrolopyrimidine analogs were added to wells using an Echo acoustic dispenser and incubated for 30 min. ER stress was induced by the addition of tunicamycin to the wells at […] for 2 h. Cells were lysed and peIF2a was evaluated using a TR-FRET system, as described above.
# as §1
# [1] = cell-free TR-FRET, GFP-eIF2a substrate, read-out: PERK IC50
# [2] = Homo sapiens, HEK293 cells, tunicamycin-induced ER stress, read-out: p-eIF2α IC50
# [3] = bound stated, read-out: biochemical potency
# [4] = bound stated, read-out: cellular potency
structure (smiles),measurement,setting,value
CCc1nc(C(N)=O)c(Nc2ccc(N3CCC(N4CCN(C)CC4)CC3)c(OC)c2)nc1NC1CCOCC1 [Gilteritinib],IC50,Kasumi-1 (FLT3wt),478 nM
same,IC50,MOLM-13 (FLT3-ITD),14 nM
CC1(COc2ccc3c(c2)ncn3-c2ccc3cccc(N4CCC(N)CC4)c3n2)COC1 [Crenolanib],IC50,Kasumi-1 (FLT3wt),80 nM
same,IC50,MOLM-13 (FLT3-ITD),3 nM
Cc1cc(NC(=O)Oc2ccccc2)ccc1-c1cn(C)c2ncnc(N)c12 [Compound 18],IC50,PERK; [1],3980 nM
same,IC50,p-eIF2α; [2],> 10000 nM
Cc1cc(NC(=O)N(C)c2ccccc2)ccc1-c1cn(C)c2ncnc(N)c12 [Compound 20],IC50,PERK; [1],108 nM
same,IC50,p-eIF2α; [2],1750 nM
Cc1cc(NC(=O)C(F)(F)c2ccccc2)ccc1-c1cn(C)c2ncnc(N)c12 [Compound 17],IC50,PERK; [1],300 nM
same,IC50,p-eIF2α; [2],532 nM
Cc1nc(N)c2c(-c3ccc(NC(=O)[C@H](O)c4cncc(F)c4)cc3C)cn(C)c2n1 [Compound 43],IC50,PERK; [1],52 nM
same,IC50,p-eIF2α; [2],562 nM
Cc1cccc([C@@H](O)C(=O)Nc2ccc(-c3cn(C)c4nc(C)nc(N)c34)c(C)c2)c1 [Compound 30],IC50,PERK; [1],14 nM
same,IC50,p-eIF2α; [2],83 nM
Cc1nc(N)c2c(-c3ccc(NC(=O)C(O)c4ccccc4C)cc3C)cn(C)c2n1 (stereo not drawn) [Compound 31],IC50,PERK; [1],26 nM
same,IC50,p-eIF2α; [2],122 nM
Cc1nc(N)c2c(-c3cnc(NC(=O)[C@H](O)c4cccc(F)c4)nc3C)cn(C)c2n1 [Compound 76],IC50,PERK; [1],647 nM
same,IC50,p-eIF2α; [2],> 10000 nM
Cc1cc(NC(=O)[C@H](N)c2ccccc2)ccc1-c1cn(C)c2ncnc(N)c12 [Compound 23],IC50,PERK; [1],33 nM
same,IC50,p-eIF2α; [2],581 nM
Cc1nc(N)c2c(-c3ccc(NC(=O)[C@H](O)c4cccc(F)c4)nc3C)cn(C)c2n1 [Compound 72],IC50,PERK; [1],17 nM
same,IC50,p-eIF2α; [2],105 nM
Cc1nc(N)c2c(-c3ccc(NC(=O)[C@H](O)c4cccc(F)c4)cc3C(F)(F)F)cn(C)c2n1 [Compound 58],IC50,PERK; [1],8.5 nM
same,IC50,p-eIF2α; [2],204 nM
Cc1nc(N)c2c(-c3ccc(NC(=O)[C@H](O)c4cccc(Cl)c4)cc3Cl)cn(C)c2n1 [Compound 55],IC50,PERK; [1],1.6 nM
same,IC50,p-eIF2α; [2],17 nM
"Cc1nc(N)c2c(-c3ccc(NC(=O)[C@H](O)c4cccc(C(F)(F)F)c4)cc3F)cn(C)c2n1 [Compound 47, (R)-N-(4-(4-amino-2,7-dimethyl-7H-pyrrolo[2,3-d]pyrimidin-5-yl)-3-fluorophenyl)-2-hydroxy-2-(3-(trifluoromethyl)phenyl)acetamide]",IC50,PERK; [3],< 5 nM
same,IC50,PERK; [1],5.1 nM
same,IC50,p-eIF2α; [2],11 nM
same,IC50,p-eIF2α; [4],< 15 nM
Cc1nc(N)c2c(-c3ccc(NC(=O)[C@H](O)c4cccc(C(F)F)c4)cc3C)cn(C)c2n1 [Compound 34],IC50,PERK; [1],5.9 nM
same,IC50,p-eIF2α; [2],21 nM
Cc1nc(N)c2c(-c3ccc(NC(=O)[C@H](O)c4cccc(F)c4)cc3Cl)cn(C)c2n1 [Compound 53],IC50,PERK; [1],17 nM
same,IC50,p-eIF2α; [2],56 nM
Cc1nc(N)c2c(-c3ccc(NC(=O)[C@H](O)c4cccc(C(F)(F)F)c4)cc3)cn(C)c2n1 [Compound 63],IC50,PERK; [1],2.8 nM
same,IC50,p-eIF2α; [2],13 nM
Cc1nc(N)c2c(-c3cc(F)c(NC(=O)C(O)c4cccc(F)c4)cc3F)cn(C)c2n1 (stereo not drawn) [Compound 71],IC50,PERK; [1],1 nM
same,IC50,p-eIF2α; [2],34 nM
Cc1nc(N)c2c(-c3cnc(NC(=O)[C@H](O)c4cccc(F)c4)cc3C)cn(C)c2n1 [Compound 74],IC50,PERK; [1],8.3 nM
same,IC50,p-eIF2α; [2],146 nM
Cc1nc(N)c2c(-c3c(C)cc(NC(=O)C(O)c4cccc(F)c4)cc3F)cn(C)c2n1 (stereo not drawn) [Compound 67],IC50,PERK; [1],22 nM
same,IC50,p-eIF2α; [2],78 nM
C#Cc1cccc([C@@H](O)C(=O)Nc2ccc(-c3cn(C)c4nc(C)nc(N)c34)c(C)c2)c1 [Compound 32],IC50,PERK; [1],3 nM
same,IC50,p-eIF2α; [2],7.8 nM
COc1cc(NC(=O)[C@H](O)c2cccc(F)c2)ccc1-c1cn(C)c2nc(C)nc(N)c12 [Compound 60],IC50,PERK; [1],236 nM
same,IC50,p-eIF2α; [2],1850 nM
Cc1cccc([C@@H](O)C(=O)Nc2ccc(-c3cn(C)c4nc(C)nc(N)c34)c(F)c2)c1 [Compound 49],IC50,PERK; [1],1.1 nM
same,IC50,p-eIF2α; [2],17 nM
Cc1nc(N)c2c(-c3ccc(NC(=O)[C@H](O)c4cccc(C(F)(F)F)c4)cc3Cl)cn(C)c2n1 [Compound 54],IC50,PERK; [1],2.7 nM
same,IC50,p-eIF2α; [2],21 nM
Cc1nc(N)c2c(-c3ccc(NC(=O)[C@H](O)c4cc(F)cc(C#N)c4)cc3C)cn(C)c2n1 [Compound 42],IC50,PERK; [1],4.2 nM
same,IC50,p-eIF2α; [2],32 nM
Cc1nc(N)c2c(-c3ccc(NC(=O)[C@H](O)c4cccc(F)c4)c(F)c3)cn(C)c2n1 [Compound 69],IC50,PERK; [1],1 nM
same,IC50,p-eIF2α; [2],26 nM
Cc1cccc([C@@H](O)C(=O)Nc2ccc(-c3cn(C)c4nc(C)nc(N)c34)c(Cl)c2)c1 [Compound 56],IC50,PERK; [1],4.1 nM
same,IC50,p-eIF2α; [2],18 nM
CCc1cccc([C@@H](O)C(=O)Nc2ccc(-c3cn(C)c4nc(C)nc(N)c34)c(F)c2)c1 [Compound 50],IC50,PERK; [1],0.9 nM
same,IC50,p-eIF2α; [2],25 nM
Cc1nc(N)c2c(-c3cnc(NC(=O)[C@H](O)c4cccc(C(F)(F)F)c4)cc3C)cn(C)c2n1 [Compound 75],IC50,PERK; [1],6.8 nM
same,IC50,p-eIF2α; [2],95 nM
CCc1cccc([C@@H](O)C(=O)Nc2ccc(-c3cn(C)c4nc(C)nc(N)c34)c(Cl)c2)c1 [Compound 57],IC50,PERK; [3],< 5 nM
same,IC50,p-eIF2α; [2],14 nM
same,IC50,p-eIF2α; [4],< 15 nM
CO[C@@H](C(=O)Nc1ccc(-c2cn(C)c3ncnc(N)c23)c(C)c1)c1ccccc1 [Compound 21],IC50,PERK; [1],14 nM
same,IC50,p-eIF2α; [2],174 nM
Cc1cc(NC(=O)CCc2ccccc2)ccc1-c1cn(C)c2ncnc(N)c12 [Compound 15],IC50,PERK; [1],126 nM
same,IC50,p-eIF2α; [2],1930 nM
Cc1nc(N)c2c(-c3ccc(NC(=O)[C@H](O)c4cccc(F)c4)cc3F)cn(C)c2n1 [Compound 46],IC50,PERK; [1],2.2 nM
same,IC50,p-eIF2α; [2],41 nM
